# Measured values published in paper PMC11359702, “Synthesis and Biochemical Evaluation of Ethanoanthracenes and Related Compounds: Antiproliferative and Pro-Apoptotic Effects in Chronic Lymphocytic Leukemia (CLL)” (Pharmaceuticals, 2024).
# Where two headings read alike, the source gives them in different places.
# Tests used:
# SNB-75 = experiment: NCI-60 five-dose assay; type: cell-based, human
# Method: (§1) A number of our most promising compounds identified through preliminary cell viability testing (23c, 23d, 23f, 23h, 23l, 23m, 23n, 23o, 24f, 24l, 25n and 26n) were selected for NCI drug screening in the 60-cell-line panel. The panel includes nine subcategories based on cancer tissue types, which include leukemia, ovarian, central nervous system, breast, lung, prostate, skin, renal and colon cancer. The compounds were initially assessed in a one-dose assay at a fixed treatment concentration of 10 µM. The compounds selected for further investigation were progressed to a five-dose assay across the concentration ranges of 0.01, 0.1, 1, 10 and 100 µM [72]. The endpoints assessed in the screening protocol were GI50, TGI and LC50 [72].
# HG-3 cells [1] = conditions: 10 µM
# PGA-1 cells [2] = conditions: 10 µM
# HG-3 cells [3] = experiment: LDH cytotoxicity assay (CytoTox 96); type: cell-based; conditions: HG-3, 10 µM, 24 h, lysis solution = 100%
# Description: (§2) The lactate dehydrogenase (LDH) assay is used to assess the membrane integrity of cells as a function of the cytoplasmic LDH released. The loss of cell membrane integrity (due to cytotoxic insult) is detectable through LDH release into the cell growth medium. The assay is initiated via the reduction in cellular co-factor NAD^+ to NADH catalyzed via the LDH enzyme. Newly formed NADH catalyzes the acidic reduction in iodonitrotetrazolium chloride (INT) to the highly colored formazan (red) (mediated via the diaphorase enzyme). […] At the 10-µM treatment concentration, mild to moderate cytotoxicity (19–47%) was observed. […] Cytotoxicity remained low to mild at 1 µM (4–18%) with 23a displaying the lowest LDH release (4%).
# (§3) Following the treatment of the HG-3 and PGA-1 cells at 10 µM for 24 hr, the amount of LDH released was determined using an LDH assay kit from Promega (G1780). Cell lysis solution = 100% cell lysis and LDH release). Data are presented as % cell death at a concentration of 10 µM. Cells were treated with ethanoanthracene compounds 20a, 20f, 23a and 25n (1 µM and 10 µM) for 24 h. Values are shown as the mean of three independent experiments.
# (§4) The cytotoxicity of the selected compounds 20a, 20f, 23a and 25n was determined using the CytoTox 96 non-radioactive cytotoxicity assay (Promega Corporation; 2800 Woods Hollow Road, Madison, WI, USA). CLL cells HG-3 and PGA-1 were incubated for 24 h and then treated with the selected compounds 20a, 20f, 23a and 25n at 10-µM and 1-µM concentrations, following the protocol outlined above in the cell viability assay. After 24 h, the lysis solution (10×) (20 µL) was added, and the cells were incubated for a further 1 h to ensure complete cell death. Supernatant (50 µL) was removed from each well and transferred to a clean 96-well plate. “Substrate mix” (50 µL) was added, and the plate was stored in the dark at 20 °C for 30 min. “Stop solution” (50 µL) was added to each well, and the absorbance at 490 nm was recorded using a Dynatech MR5000 plate reader; the % cell death was determined relative to the control cell lysis solution.
# PGA-1 cells [4] = experiment: LDH cytotoxicity assay (CytoTox 96); type: cell-based; conditions: 24 h
# Description: as §2, §3, §4
# [5] = HPLC stability study in phosphate buffers; type: physicochemical; conditions: for remaining at 24 h, 14.6 µg/mL / half-life at 14.6 µg/mL: phosphate buffer, 37 °C; for remaining at 24 h, 14.6 µg/mL: HPLC
# Method in brief: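 Compound stock (5 mg in 10 mL 80:20 acetonitrile–water) added to phosphate buffers at pH 4, 7.4 and 9 and held at 37 °C. Sampled over 24 h (0 min to 24 h) and analysed by C18 HPLC with UV detection at 254 nm; single experiments.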
# T-47D = experiment: NCI-60 five-dose assay; type: cell-based; conditions: Homo sapiens, T47D
# Method: as §1
# SF295 = experiment: NCI-60 five-dose assay; type: cell-based; conditions: Homo sapiens, SF-295
# Method: as §1
structure (smiles),measurement,setting,value
O=C(/C=C/C12c3ccccc3C(c3ccccc31)C1C(=O)NC(=O)C12)c1ccc(F)cc1 (racemic) [Compound 23h],GI50,SNB-75; Homo sapiens,1370 nM
"O=C(/C=C/C12c3ccccc3C(c3ccccc31)C1C(=O)NC(=O)C12)c1ccc(Cl)cc1 (racemic) [Compound 23l, (E)-9-(3-(4-Chlorophenyl)-3-oxoprop-1-en-1-yl)-9,10-dihydro-9,10-[3,4]epipyrroloanthracene-12,14-dione]",cell viability,HG-3 cells [1],0.7%
same,cell viability,PGA-1 cells [2],5%
same,GI50,SNB-75,1100 nM
"O=C(C=CC12c3ccccc3C(c3ccccc31)C1C(=O)NC(=O)C12)c1ccc(Br)cc1 (stereo not drawn) [Compound 23a, 9-(E)-3-(4-Bromophenyl)-3-oxoprop-1-en-1-yl)-9,10-dihydro-9,10-[3,4]epipyrroloanthracene-12,14-dione]","LDH release (cytotoxicity, % cell death)",HG-3 cells [3],25%
same,"LDH release (cytotoxicity, % cell death)","PGA-1 cells [4]; PGA-1, 1 µM",4%
same,"LDH release (cytotoxicity, % cell death)","PGA-1 cells [4]; PGA-1, 10 µM",23%
same,recovery at 24 h,"[5]; over the pH range studied (pH 4, 7.4 and 9)",< 50%
same,"remaining at 24 h, 14.6 µg/mL","[5]; pH 4 buffer, read-out: % remaining 24 h pH 4",3.12%
same,half-life at 14.6 µg/mL,"[5]; pH 4 buffer, read-out: Half-life pH 4 (converted)",13.3 h
same,"remaining at 24 h, 14.6 µg/mL","[5]; pH 7.4 buffer, read-out: % remaining 24 h pH 7.4",1.38%
same,half-life at 14.6 µg/mL,"[5]; pH 7.4 buffer, read-out: Half-life pH 7.4 (converted)",~7.5 h
same,"remaining at 24 h, 14.6 µg/mL","[5]; pH 9 buffer, read-out: % remaining 24 h pH 9",0.48%
same,half-life at 14.6 µg/mL,"[5]; pH 9 buffer, read-out: Half-life pH 9 (converted)",~7.5 h
"O=C(C=CC12c3ccccc3C(c3ccccc31)C1C(=O)N(c3ccc(Cl)cc3)C(=O)C12)c1ccccn1 (stereo not drawn) [Compound 25n, (E)-13-(4-Chlorophenyl)-9-(3-oxo-3-(pyridin-2-yl)prop-1-en-1-yl)-9,10-dihydro-9,10-[3,4]epipyrroloanthracene-12,14-dione]",GI50,T-47D,312 nM
same,GI50,SF295,379 nM
same,"LDH release (cytotoxicity, % cell death)",HG-3 cells [3],47%
same,"LDH release (cytotoxicity, % cell death)","PGA-1 cells [4]; PGA-1, 10 µM",15%
